# In patent US12187712B2, “Cardiac sarcomere inhibitors” (Cytokinetics, Inc., priority 2018, dated 2025):
# Key:
# [1] = molecular target: T1, bovine cardiac myofibrils (Bos taurus, UniProt Q9BE39); assay: Skinned myofibril ATPase assay (PK/LDH-coupled), CDMF75; type: biochemical; details: inhibition of steady-state ATPase activity of bovine cardiac myofibrils at 75% Ca2+ activation (pCa75)
# T1 construct: full-length cardiac myosin in the context of the native sarcomere, skinned myofibril assays were performed; from tissue; host or cells: bovine cardiac left ventricular tissue, detergent-skinned (Triton X-100) myofibrils
# Procedure: To evaluate the effect of compounds on the ATPase activity of full-length cardiac myosin in the context of the native sarcomere, skinned myofibril assays were performed. Bovine cardiac myofibrils were obtained by homogenizing bovine cardiac left ventricular tissue in the presence of a detergent such as triton X-100. Such treatment removes membranes and a majority of the soluble cytoplasmic proteins but leaves intact the cardiac sarcomeric acto-myosin apparatus. Myofibril preparations retain the ability to hydrolyze ATP in an Ca^2+ regulated manner. ATPase activities of such myofibril preparations in the presence and absence of compounds were assayed at Ca^2+ concentrations activating to a defined fraction of the maximal rate (i.e., 25%, 75%). Small molecule agents were assessed for their ability to inhibit the steady-state ATPase activity of bovine cardiac myofibrils using pyruvate kinase and lactate dehydrogenase (PK/LDH)-coupled enzyme system. This assay regenerates myosin-produced ADP into ATP by oxidizing NADH, producing an absorbance change at 340 nm. Prior to testing small molecule agents, the bovine cardiac myofibrils were assessed for their calcium responsiveness and the calcium concentration that achieves either a 50% (pCa50) or 75% (pCa75) activation of the myofibril system was chosen as the final condition for assessing the inhibitory activity of the small molecule agents. All enzymatic activity was measured in a buffered solution containing 12 mM PIPES (piperazine-N,N′-bis(2-ethanesulfonic acid), 2 mM magnesium chloride at pH 6.8 (PM 12 buffer). Final assay conditions were 1 mg/mL of bovine cardiac myofibrils, 4 U/mL pyruvate kinase, 6 U/mL lactate dehydrogenase, 50 μM ATP, 0.1 mg/mL BSA (bovine serum albumin), 10 ppm antifoam, 1 mM DTT, 0.5 mM NADH, 1.5 mM PEP, 0.6 mM EGTA, and an amount of CaCl2 sufficient to achieve either 50% or 75% activation of the myofibril ATPase activity. Results for compounds tested are provided in Table A. Compounds tested were prepared in accordance with the synthetic procedures described herein.
# [2] = system: adult cardiac ventricular rat myocytes; assay: Adult ventricular myocyte contractility (fractional shortening); type: cell-based, Sprague-Dawley rats; details: 5 min perfusion, 5 cells tested
# Procedure: Adult male Sprague-Dawley rats were anesthetized and the hearts were quickly excised, rinsed and the ascending aorta was cannulated. Continuous retrograde perfusion was initiated on the hearts at a perfusion pressure of 60 cm H2O. Hearts were first perfused with a nominally Ca^2+-free modified Krebs solution of the following composition: 113 mM NaCl, 4.7 mM KCl, 0.6 mM KH2PO4, 0.6 mM Na2HPO4, 1.2 mM MgSO4, 12 mM NaHCO3, 10 mM KHCO3, 30 mM taurine, 5.5 mM glucose and 10 mM Hepes (all Sigma). This medium is not recirculated and is continually aerated with a 95% O2/5% CO2 mixture. After approximately 3 minutes, the heart was perfused with a modified Krebs buffer supplemented with collagenase (Worthington) and 12.5 μM final calcium concentration. The heart was removed from the cannulae after the heart appeared blanched and soft in appearance. The atria and vessels were removed, and the ventricles were gently dissected into smaller pieces with forceps. The tissue was homogenized by repeated pipette trituration, and the collagenase reaction was stopped by 10% bovine calf serum (BCS), sedimentation and resuspension in perfusion buffer containing 5% BCS and 12.5 uM CaCl2. Myocytes were made calcium tolerant by stepwise addition of a CaCl2 solution to a final concentration of 1.2 mM. Cells were then washed and resuspended in Tyrode's buffer (137 mM NaCl, 3.7 mM KCl, 0.5 mM MgCl, 11 mM glucose, 4 mM Hepes, and 1.2 mM CaCl2, pH 7.4). Cells were kept for 60 min at 37° C. prior to initiating experiments and used within 5 hrs of isolation. […] Additionally, only cells whose basal contractility was between 3 and 8% were used in subsequent experiments with compounds.
# Aliquots of myocytes in Tyrode's buffer were placed in perfusion chambers (series 20 RC-27NE; Warner Instruments) complete with heating platforms. […] Contractility of the myocytes and contraction and relaxation velocities were then recorded using edge detection.
# Five or more individual myocytes were tested per compound from two or more different myocyte preparations. […] These average transients were analyzed using the IonWizard software (IonOptix) to determine changes in diastolic length and fractional shortening. Fractional shortening was calculated as: ((resting length −length at peak contraction) divided by the resting length). The percent change in fractional shortening from baseline was calculated as: ((post-dose fractional shortening/basal fractional shortening)*100). The percent reduction in fractional shortening from baseline was calculated as: (100−percent change in fractional shortening from baseline). Maximum contraction and relaxation velocities (um/sec) was also determined. Results from individual cells were averaged and the SEM was calculated.
# [3] = system: rat cardiac contractility; assay: Echocardiography assessment of acute pharmacodynamic effect in rat cardiac contractility (continuous IV infusion); type: in vivo, Sprague Dawley rats; details: estimated plasma concentration for 20% relative reduction in cardiac fractional shortening, loading + maintenance IV dose 0.5 + 1.5 mg/kg, isoflurane anesthesia
# Procedure: Echocardiography assessment of acute pharmacodynamic effect in rat cardiac contractility.
# Assessment of in vivo cardiac function by echocardiography was performed in male Sprague Dawley rats under isoflurane (1-3%) anesthesia. 2-D M-mode images of the left ventricle were acquired in the parasternal long-axis view before and during administration of compounds by continuous IV infusion. In vivo fractional shortening was determined by M-mode image analysis with the following calculation: ((End diastolic diameter−end systolic diameter)/end diastolic diameter×100). For continuous IV infusion experiments, three pre-dose baseline M-mode images were taken at 1 minute intervals prior to infusion of compound. Compounds were formulated in 50% Propylene Glycol (PG): 16% Cavitron: 10% dimethylacetamide (DMA) and delivered via a jugular vein catheter at the rate of 1 mL/kg/h. An estimated loading and maintenance IV infusion dose was administered to establish a steady state plasma concentration that produced a sustained, 20% relative reduction in cardiac fractional shortening for 60 minutes. During infusion, M-mode images were taken at 5 minute intervals for 60 minutes. Blood samples were taken to determine the plasma concentration of the compounds. Data were reported as an estimated IC20 value, which is the concentration at which fractional shortening is […]. […]
# T1 sequence (Q9BE39 whole entry): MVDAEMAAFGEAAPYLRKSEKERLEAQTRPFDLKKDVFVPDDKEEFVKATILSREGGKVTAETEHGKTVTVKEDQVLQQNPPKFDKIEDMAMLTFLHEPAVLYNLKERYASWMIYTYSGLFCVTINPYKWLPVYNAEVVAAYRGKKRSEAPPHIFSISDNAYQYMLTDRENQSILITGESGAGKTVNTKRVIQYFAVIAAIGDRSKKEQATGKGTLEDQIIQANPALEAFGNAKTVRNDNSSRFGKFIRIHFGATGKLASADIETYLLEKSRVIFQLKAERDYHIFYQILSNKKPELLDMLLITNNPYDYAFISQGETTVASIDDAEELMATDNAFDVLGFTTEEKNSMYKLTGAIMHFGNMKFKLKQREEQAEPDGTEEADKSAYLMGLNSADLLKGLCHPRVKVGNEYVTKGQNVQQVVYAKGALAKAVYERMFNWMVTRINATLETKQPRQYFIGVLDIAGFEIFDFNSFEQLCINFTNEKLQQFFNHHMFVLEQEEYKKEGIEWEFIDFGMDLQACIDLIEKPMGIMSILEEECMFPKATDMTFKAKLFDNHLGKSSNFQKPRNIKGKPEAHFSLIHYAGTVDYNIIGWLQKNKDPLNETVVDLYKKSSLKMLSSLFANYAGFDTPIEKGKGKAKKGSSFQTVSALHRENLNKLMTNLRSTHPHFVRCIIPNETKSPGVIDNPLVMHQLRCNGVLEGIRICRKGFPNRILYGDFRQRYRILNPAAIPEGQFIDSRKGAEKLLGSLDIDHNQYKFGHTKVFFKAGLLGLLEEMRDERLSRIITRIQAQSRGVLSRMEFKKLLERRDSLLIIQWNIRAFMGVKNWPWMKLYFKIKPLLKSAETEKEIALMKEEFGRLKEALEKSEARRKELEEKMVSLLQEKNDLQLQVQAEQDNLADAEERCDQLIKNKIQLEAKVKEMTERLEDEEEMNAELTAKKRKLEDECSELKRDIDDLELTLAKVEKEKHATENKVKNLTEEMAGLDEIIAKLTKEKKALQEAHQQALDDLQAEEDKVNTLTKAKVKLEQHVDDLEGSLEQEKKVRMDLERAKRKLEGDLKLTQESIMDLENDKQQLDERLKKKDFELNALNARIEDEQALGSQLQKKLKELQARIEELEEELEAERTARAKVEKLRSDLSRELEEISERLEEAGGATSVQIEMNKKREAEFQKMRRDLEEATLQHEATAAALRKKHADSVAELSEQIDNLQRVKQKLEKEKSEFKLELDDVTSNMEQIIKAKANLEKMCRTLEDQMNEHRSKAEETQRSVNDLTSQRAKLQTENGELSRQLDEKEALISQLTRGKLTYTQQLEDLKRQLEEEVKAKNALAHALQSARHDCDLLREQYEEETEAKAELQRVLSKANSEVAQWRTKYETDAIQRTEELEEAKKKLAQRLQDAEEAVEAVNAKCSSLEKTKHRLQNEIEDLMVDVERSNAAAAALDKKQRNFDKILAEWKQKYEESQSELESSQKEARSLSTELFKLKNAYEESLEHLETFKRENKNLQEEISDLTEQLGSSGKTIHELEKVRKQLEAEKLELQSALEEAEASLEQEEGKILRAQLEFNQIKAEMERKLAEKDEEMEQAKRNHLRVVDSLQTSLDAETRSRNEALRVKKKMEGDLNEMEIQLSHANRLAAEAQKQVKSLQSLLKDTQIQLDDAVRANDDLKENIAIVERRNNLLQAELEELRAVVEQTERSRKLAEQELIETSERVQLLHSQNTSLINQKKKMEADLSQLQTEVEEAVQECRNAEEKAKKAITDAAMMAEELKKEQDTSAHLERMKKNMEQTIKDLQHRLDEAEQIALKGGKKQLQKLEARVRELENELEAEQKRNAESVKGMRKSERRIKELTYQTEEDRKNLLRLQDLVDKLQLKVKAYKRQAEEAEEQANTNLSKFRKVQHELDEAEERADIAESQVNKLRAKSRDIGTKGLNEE
# T1 sequence (P85100 whole entry partner): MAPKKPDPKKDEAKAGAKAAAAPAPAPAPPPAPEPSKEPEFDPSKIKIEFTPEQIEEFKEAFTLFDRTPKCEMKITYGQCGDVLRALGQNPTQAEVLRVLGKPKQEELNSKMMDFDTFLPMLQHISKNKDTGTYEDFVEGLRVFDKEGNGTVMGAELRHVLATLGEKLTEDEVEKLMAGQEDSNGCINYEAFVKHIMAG
# T1 sequence (Q3SZE5 whole entry partner): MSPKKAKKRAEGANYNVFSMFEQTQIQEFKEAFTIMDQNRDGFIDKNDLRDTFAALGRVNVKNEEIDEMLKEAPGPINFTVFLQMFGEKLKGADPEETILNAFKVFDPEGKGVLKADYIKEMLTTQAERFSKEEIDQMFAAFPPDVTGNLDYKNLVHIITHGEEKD
CDMF75 IC15 [1],IC50 [1],Structure (SMILES),% FS (% reduction from baseline) ± SEM ([2]; concentration 10 μM),% FS (% reduction from baseline) ± SEM ([2]; concentration 5 μM),IC20 at 1.5 mg/kg [3],% FS (% reduction from baseline) ± SEM ([2]; concentration 1 μM)
1200 nM,4300 nM,"Cc1nc(-c2ccc(CNc3cc(C(N)=O)ccn3)cc2)no1 [Compound 19, 2-((4-(5-methyl-1,2,4-oxadiazol-3-yl)benzyl)amino) isonicotinamide]",14.4 ± 3.4%,–,–,–
500 nM,2300 nM,"C[C@@H](Nc1cnccn1)c1ccc(-c2noc(C(F)(F)F)n2)cc1 [Compound 34, (R)-N-(1-(4-(5-(trifluoromethyl)-1,2,4-oxadiazol-3-yl)phenyl)ethyl)pyrazin-2-amine]",–,30.7 ± 5.0%,–,–
600 nM,2600 nM,"Cc1nc(-c2ccc([C@@H](C)Nc3cnccn3)cc2)no1 [Compound 28, (R)-N-(1-(4-(5-methyl-1,2,4-oxadiazol-3-yl)phenyl)ethyl)pyrazin-2-amine]",–,43.6 ± 9.3%,800 nM,–
200 nM,1000 nM,"Cc1cc(-c2ccc(CNc3cnccn3)cc2)no1 [Compound 52, N-(4-(5-methylisoxazol-3-yl)benzyl)pyrazin-2-amine]",–,–,–,17.4 ± 6.8%
